From patent US10543183B2, “Treatment and diagnosis of melanoma” (The Rockefeller University, priority 2012, dated 2020)
Where a name gives a salt, the structure may show the parent alone.

Columns and labels:
[1] = test system: endothelial cells (HUVEC) recruited by human melanoma cells; experiment: trans-well endothelial recruitment assay; type: cell-based; conditions: for ability of melanoma cells to recruit endothelial cells: MeWo, HT-144, SK-Mel-2, SK-Mel-334.2, 1 μM for 72 hours
Procedure: 5×10^4 cancer cells were seeded into 24-well plates approximately 24 hours prior to the start of the assay. HUVEC's were grown to 80% confluency and serum starved in EGM-2 media supplemented with 0.2% FBS for 16 hours. HUVEC's were then pulsed with Cell Tracker Red CMTPX dye (C34552, Invitrogen) for 45 minutes. Meanwhile, cancer cells were washed with PBS, 0.5 mL of 0.2% FBS EGM-2 media was added to each well, and a 3.0 μm HTS Fluoroblock insert (351151, BD Falcon, San Jose, Calif.) was placed into each well. 1×10^5 HUVEC's, resuspended in 0.5 mL of starvation media, were seeded into each trans-well insert, and the recruitment assay was allowed to proceed for 16-18 hours at 37° C. For neutralization antibody and/or recombinant protein experiments, antibody/protein was then added to each well at the appropriate concentration as indicated in the figures: 40 μg/mL anti-ApoE 1D7, 40 μg/mL anti-IgG, 100 μM rhApoE3, and 100 μM BSA. Upon completion of the assay, the inserts were processed and analyzed as described for the matrigel invasion assay above (See Matrigel Invasion Assay).
The endothelial recruitment assay was carried out as previously described (Pencheva et al., 2012; Png et al., 2012). Melanoma cells were treated with DMSO, GW3965, T0901317, or Bexarotene at 1 μM for 56 hours, after which 5×10^4 cells were seeded in a 24-well plate in the presence of each drug and allowed to attach for 16 hours prior to starting the assay. HUVEC cells were serum-starved overnight in EGM-2 media containing 0.2% FBS. The following day, 1×10^5 HUVEC cells were seeded into a 3.0 μm HTS Fluoroblock trans-well migration insert (351151, BD Falcon, San Jose, Calif.) fitted into each well containing cancer cells at the bottom. The HUVEC cells were allowed to migrate towards the cancer cells for 20 hours at 37° C., after which the inserts were processed as previously described (Pencheva et al., 2012). For ApoE antibody neutralization experiments, 40 μg/mL 1D7 anti-ApoE blocking antibody (Heart Institute, University of Ottawa, Ottawa, Canada) or 40 μg/mL anti-IgG control antibody (AB-108-C, R&D Systems, Minneapolis, Minn.) was added to each trans-well insert at the start of the assay.
Subsequently, 5×10^4 cancer cells were seeded into 24-well plates in the presence of each drug or DMSO and allowed to attach for 16 hours prior to starting the assay. Human umbilical vein endothelial cells (HUVEC cells) were serum-starved in 0.2% FBS-containing media overnight. The following day, 1×10^5 HUVEC cells were seeded into a 3.0 μm HTS Fluoroblock insert (351151, BD Falcon) fitted into each well containing the cancer cells at the bottom. The HUVEC cells were allowed to migrate towards the cancer cells for 20 hours, after which the inserts were washed in PBS, fixed in 4% PFA, labeled with DAPI, and mounted on slides. The basal side of each insert was imaged using an inverted fluorescence microscope (Zeiss Axiovert 40 CFL) at 5× magnification, and the number of DAPI-positive cells was quantified using ImageJ.

melanoma cells = experiment: cell proliferation and viability assay; type: cell-based, human; conditions: for cell proliferation or cell viability rates: MeWo, HT-144, SK-Mel-334.2, 1 μM, 5 days
Procedure: To determine the effects of miR-199a or miR-1908 over-expression and combinatorial LNA-induced miRNA inhibition on cell proliferation, 2.5×10^4 cells were seeded in triplicate in 6-well plates, and viable cells were counted after 5 days. […] Viable cells were counted after 8, 24, 48, 72, and 120 hours.
After 5 days, the number of viable and dead cells was counted using the trypan blue dye (72-57-1, Sigma-Aldrich), which selectively labels dead cells.

[2] = test system: human melanoma cells (MeWo, MeWo-LM2, A375-LM3, HT-144, SK-Mel-334.2); experiment: tail-vein lung metastatic colonization assay; type: in vivo, mouse; conditions: for reduction in lung metastatic colonization by MeWo cells: orally administered, immunocompromised mice
Procedure: After 8 hours, the transfection media was replaced with fresh media. After 48 hours, 1×10^5 cells were injected intravenously into NOD-SCID mice to assess lung metastatic colonization or through intracardiac injection into athymic nude mice to assess systemic metastasis. For cell invasion and endothelial recruitment in vitro assays, the cells were used 96 hours post-transfection.
Melanoma cells used for in vivo metastasis assays were transduced with a stably expressed retroviral construct encoding a luciferase reporter gene (Ponomarev et al., 2004), allowing us to monitor the in vivo progression of melanoma cells by bioluminescence imaging. The following numbers of melanoma cells, resuspended in 100 μL of PBS, were injected intravenously via the tail-vein: 4×10^4 MeWo cells, 2.5×10^5 HT-144 cells, 2×10^5 SK-Mel-334.2 cells, 5×10^4B 16F10 cells, and 1×10^5YUMM cells. The MeWo, HT-144, and SK-Mel-334.2 cells were injected into 6-8 week-old sex-matched NOD scid mice, while the B16F10 and YUMM cells were injected into 6-8 week-old sex-matched C57BL/6 mice. In all experiments assessing at the effects of GW3965 on metastasis formation, mice were pre-treated on a control diet or a GW3965-supplemented diet (20 mg/kg) for 10 days. To assess the effect of GW3965 treatment on brain metastasis, 1×10^5 MeWo brain-metastatic derivatives were injected intracardially into athymic nude mice. Immediately following injection, mice were randomly assigned to a control diet or GW3965-supplemented diet (100 mg/kg). To determine whether oral delivery of GW3965 can inhibit the progression of incipient metastasis, NOD Scid mice were intravenously injected with 4×10^4MeWo cells and the cells were allowed to colonize the lungs for 42 days, after which mice were blindedly assigned to a control diet or a GW3965-supplemented diet (100 mg/kg) treatment.

Row | Compound | ability of melanoma cells to recruit endothelial cells [1] | endothelial recruitment ([1]; parental MeWo cells pre-treated for 48 hours) | cell proliferation or cell viability rates (melanoma cells) | reduction in metastatic colonization capacity of pre-treated cells ([2]; MeWo cells pre-treated 1 μM for 48 hours) | survival times following metastatic colonization ([2]; chow 20 mg/kg) | in vivo melanoma metastasis (lung, bioluminescence) ([2]; chow diet 20 mg/kg, tail-vein injection of parental MeWo cells) | metastatic colonization by HT-144 and SK-Mel-334.2 lines ([2]; diet 20 mg/kg) | suppression of colonization by incipient lung metastases ([2]; diet 100 mg/kg from d42) [fold] | number of macroscopic metastatic nodules formed ([2]; diet 100 mg/kg, d77) | reduction in lung metastatic colonization by MeWo cells ([2]; chow 20 mg/kg) [fold] | endothelial recruitment by metastatic LM2 cells ([1]; 100 μM added to cell media) | ability of pre-treated endothelial cells to migrate towards highly metastatic cancer cells ([1]; endothelial cells pre-incubated 100 μM, 24 hours, LM2 cells) | melanoma cell or endothelial cell in vitro proliferation (melanoma cells; 100 μM) | suppression of metastatic colonization ([2]; MeWo-LM2 cells pre-incubated for 24 hours at 100 μg/mL before injection)
1 | O=C(O)Cc1cccc(OCCCN(Cc2cccc(C(F)(F)F)c2Cl)CC(c2ccccc2)c2ccccc2)c1 [GW3965 2, 3-[3-[N-(2-Chloro-3-trifluoromethylbenzyl)-(2,2-diphenylethyl)amino]propyloxy] phenylacetic acid hydrochloride] | consistently suppressed | decreased | did not affect | more than 50 fold | significantly prolonged | significant reduction | suppressed | 28 | decreased | 31 | – | – | – | –
2 | O=S(=O)(c1ccccc1)N(CC(F)(F)F)c1ccc(C(O)(C(F)(F)F)C(F)(F)F)cc1 [T0901317 1] | consistently suppressed | – | did not affect | – | – | – | – | – | – | 23 | – | – | – | –
3 | recombinant ApoE3: recombinant human ApoE3 (4696, BioVision) | – | – | – | – | – | – | – | – | – | – | significantly suppressed | significantly reduced | did not affect | over 300 fold
